Results taken from US20250230193A1, “CYCLIC COMPOUND HAVING SELECTIVE KRAS INHIBITORY EFFECT ON HRAS AND NRAS” (CHUGAI SEIYAKU KABUSHIKI KAISHA, priority 2022, published 2025).

Experiments:
[1] = biological target: GDP-bound HRAS wild-type protein (Homo sapiens, UniProt P01112); assay: Binding to HRAS by surface plasmon resonance (SPR), Single Cycle Kinetics; settings: for HRAS/KRAS (ratio of KD value with respect to HRAS to KD value with respect to KRAS): SPR, GDP-bound HRAS wild-type vs GDP-bound KRAS wild-type
[2] = biological target: GDP-bound NRAS wild-type protein (Homo sapiens, UniProt P01111); assay: Binding to NRAS by surface plasmon resonance (SPR), Single Cycle Kinetics; settings: for NRAS/KRAS (ratio of KD value with respect to NRAS to KD value with respect to KRAS): SPR, GDP-bound NRAS wild-type vs GDP-bound KRAS wild-type
Chain of GDP-bound NRAS wild-type protein (P01111 whole entry): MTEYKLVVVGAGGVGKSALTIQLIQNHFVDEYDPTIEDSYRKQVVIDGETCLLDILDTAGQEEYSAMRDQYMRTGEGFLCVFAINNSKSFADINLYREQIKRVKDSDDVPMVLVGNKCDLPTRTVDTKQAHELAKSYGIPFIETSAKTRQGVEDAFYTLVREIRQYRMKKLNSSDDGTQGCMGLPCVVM

Chain of GDP-bound HRAS wild-type protein (P01112 whole entry): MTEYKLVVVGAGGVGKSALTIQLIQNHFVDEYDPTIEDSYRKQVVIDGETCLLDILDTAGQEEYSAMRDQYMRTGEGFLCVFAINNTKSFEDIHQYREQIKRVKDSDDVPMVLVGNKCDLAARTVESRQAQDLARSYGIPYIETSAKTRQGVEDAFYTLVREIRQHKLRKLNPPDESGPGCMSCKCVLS

| Structure (SMILES) | HRAS/KRAS (ratio of KD value with respect to HRAS to KD value with respect to KRAS) ([1]; KD ratio) | NRAS/KRAS (ratio of KD value with respect to NRAS to KD value with respect to KRAS) ([2]; KD ratio) | also measured |
| --- | --- | --- | --- |
| CCC[C@H]1C(=O)N[C@@H]([C@@H](C)CC)C(=O)N(C2CC2)CC(=O)N(C)[C@H]2C/C=C\CCN(C2=O)[C@@H](CC2CCCCC2)C(=O)N(C)CC(=O)N[C@@H](CCc2ccc(C(F)(F)F)c(OC)c2)C(=O)N2C[C@@H](C)C[C@H]2C(=O)N(C)C2(CCC2)C(=O)N(C)[C@@H](C2CCCC2)C(=O)N(C)[C@H](C(=O)N(C)C)CC(=O)N1C [PP2372] | – | – | HRAS/KRAS (ratio of KD value with respect to HRAS to KD value with respect to KRAS) [1]: B (a compound having 3 or more and less than 10 is denoted as B); NRAS/KRAS (ratio of KD value with respect to NRAS to KD value with respect to KRAS) [2]: A (a compound having 10 or more and less than 20 is denoted as A) |
| CC[C@H](C)[C@@H]1NC(=O)[C@H](CC(C)C)N(C)C(=O)C[C@@H](C(=O)N2CCOCC2)N(C)C(=O)[C@H](C2CCCC2)N(C)C(=O)C2(CCCC2)NC(=O)[C@@H]2CCCN2C(=O)[C@H](CCc2cc(F)c(C(F)(F)F)c(F)c2)NC(=O)CN(C)C(=O)[C@H](Cc2ccc(F)cc2)N2CCCCC[C@@H](C2=O)N(C)C(=O)CN(C)C1=O [PP0964] | B (a compound having 3 or more and less than 10 is denoted as B) | B (a compound having 3 or more and less than 10 is denoted as B) | – |
| CCC[C@H]1C(=O)N[C@@H]([C@@H](C)CC)C(=O)N(C2CC2)CC(=O)N(C)[C@H]2C/C=C\CCN(C2=O)[C@@H](Cc2ccc(C)cc2)C(=O)N(C)CC(=O)N[C@@H](CCc2ccc(C(F)(F)F)c(OC)c2)C(=O)N2C[C@H](OCC)C[C@H]2C(=O)N(C)C2(CCC2)C(=O)N(C)[C@@H](C(CC)CC)C(=O)N(C)[C@H](C(=O)N(C)C)CC(=O)N1C [PP2325] | – | – | HRAS/KRAS (ratio of KD value with respect to HRAS to KD value with respect to KRAS) [1]: A (a compound having 10 or more and less than 20 is denoted as A); NRAS/KRAS (ratio of KD value with respect to NRAS to KD value with respect to KRAS) [2]: A (a compound having 10 or more and less than 20 is denoted as A) |
| CC[C@H](C)[C@@H]1NC(=O)[C@H](CC)N(C)C(=O)C[C@@H](C(=O)N(C)C)N(C)C(=O)[C@H](C2CCCC2)N(C)C(=O)C2(CCC2)NC(=O)[C@@H]2CCCN2C(=O)[C@H](CCc2cc(F)c(C(F)(F)F)c(F)c2)NC(=O)CN(C)C(=O)[C@H](Cc2ccc(C(F)(F)F)cc2)N2CC/C=C\C[C@@H](C2=O)N(C)C(=O)CN(C)C1=O [PP1135] | A (a compound having 10 or more and less than 20 is denoted as A) | A (a compound having 10 or more and less than 20 is denoted as A) | – |
| CC[C@H](C)[C@@H]1NC(=O)[C@H](CC)N(C)C(=O)C[C@@H](C(=O)N(C)C)N(C)C(=O)[C@H](C2CCCC2)N(C)C(=O)C2(CCC2)NC(=O)[C@@H]2CCCCN2C(=O)[C@H](CCc2cc(F)c(C(F)(F)F)c(F)c2)NC(=O)CN(C)C(=O)[C@H](Cc2ccc(C(F)(F)F)cc2)N2CC/C=C\C[C@@H](C2=O)N(C)C(=O)CN(C)C1=O [PP1136] | A (a compound having 10 or more and less than 20 is denoted as A) | A (a compound having 10 or more and less than 20 is denoted as A) | – |
| CCO[C@@H]1C[C@H]2C(=O)NC3(CCC3)C(=O)N(C)[C@@H](C3CCCC3)C(=O)N(C)[C@H](C(=O)N(C)C)CC(=O)N(C)[C@@H](CSC)C(=O)N[C@@H]([C@@H](C)CC)C(=O)N(C)CC(=O)N(C)[C@H]3C/C=C\CCN(C3=O)[C@@H](Cc3ccc(C(F)(F)F)cc3)C(=O)N(C)CC(=O)N[C@@H](CCc3cc(F)c(C(F)(F)F)c(F)c3)C(=O)N2C1 [PP1119] | A (a compound having 10 or more and less than 20 is denoted as A) | A (a compound having 10 or more and less than 20 is denoted as A) | – |
| CCC(CC)[C@H]1C(=O)N(C)[C@H](C(=O)N2CCCC2)CC(=O)N(C)[C@H]2CCC/C=C/c3ccc(cc3)C[C@@H](C(=O)N(C)CC(=O)N[C@@H](CCc3ccc(Cl)c(Cl)c3)C(=O)N3CCC[C@H]3C(=O)NC3(CC(C)(C)C3)C(=O)N1C)N1CC/C=C\C[C@@H](C1=O)N(C)C(=O)CN(C)C(=O)[C@H]([C@@H](C)CC)NC2=O [PP2604] | – | – | HRAS/KRAS (ratio of KD value with respect to GDP-bound HRAS wild-type protein to KD value with respect to KRAS) ([1]; KD ratio HRAS/KRAS, class symbols): A (a compound having 10 or more and less than 20 is denoted as A); NRAS/KRAS (ratio of KD value with respect to GDP-bound NRAS wild-type protein to KD value with respect to KRAS) ([2]; KD ratio NRAS/KRAS, class symbols): AA (a compound having 20 or more is denoted as AA) |
| CC[C@H](C)[C@@H]1NC(=O)[C@H](COC)N(C)C(=O)C[C@@H](C(=O)N2CCOCC2)N(C)C(=O)[C@H](C2CCCC2)N(C)C(=O)C2(CCCC2)NC(=O)[C@@H]2CCCN2C(=O)[C@H](CCc2cc(F)c(C(F)(F)F)c(F)c2)NC(=O)CN(C)C(=O)[C@H](Cc2ccc(C(F)(F)F)cc2)N2CCCCC[C@@H](C2=O)N(C)C(=O)CN(C)C1=O [PP0845] | B (a compound having 3 or more and less than 10 is denoted as B) | B (a compound having 3 or more and less than 10 is denoted as B) | – |
